Measurements from article PMC8333425, “Discovery of a dual Ras and ARF6 inhibitor from a GPCR endocytosis screen” (Nature Communications, 2021).

How the values were obtained:
Assay in all cases: KINOMEscan kinase binding assay
[1] = molecular target: T1, 384 kinases from the human genome (Homo sapiens, UniProt Q16288); settings: kinase TRKC (Entrez NTRK3)
T1 construct: purchased Eurofin/DiscoverX
Outline: (§1)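 A panel of 384 human kinases was profiled by KINOMEscan binding in the presence of 10 µM compound. Kinase–ligand binding was given as percent of DMSO control, averaged from duplicates in a single run, with an S(10) selectivity score.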

[2] = molecular target: T2, 384 kinases from the human genome (Homo sapiens, UniProt O14920); settings: kinase IKK-beta (Entrez IKBKB)
T2 construct: purchased Eurofin/DiscoverX
T2 sequence (O14920 whole entry): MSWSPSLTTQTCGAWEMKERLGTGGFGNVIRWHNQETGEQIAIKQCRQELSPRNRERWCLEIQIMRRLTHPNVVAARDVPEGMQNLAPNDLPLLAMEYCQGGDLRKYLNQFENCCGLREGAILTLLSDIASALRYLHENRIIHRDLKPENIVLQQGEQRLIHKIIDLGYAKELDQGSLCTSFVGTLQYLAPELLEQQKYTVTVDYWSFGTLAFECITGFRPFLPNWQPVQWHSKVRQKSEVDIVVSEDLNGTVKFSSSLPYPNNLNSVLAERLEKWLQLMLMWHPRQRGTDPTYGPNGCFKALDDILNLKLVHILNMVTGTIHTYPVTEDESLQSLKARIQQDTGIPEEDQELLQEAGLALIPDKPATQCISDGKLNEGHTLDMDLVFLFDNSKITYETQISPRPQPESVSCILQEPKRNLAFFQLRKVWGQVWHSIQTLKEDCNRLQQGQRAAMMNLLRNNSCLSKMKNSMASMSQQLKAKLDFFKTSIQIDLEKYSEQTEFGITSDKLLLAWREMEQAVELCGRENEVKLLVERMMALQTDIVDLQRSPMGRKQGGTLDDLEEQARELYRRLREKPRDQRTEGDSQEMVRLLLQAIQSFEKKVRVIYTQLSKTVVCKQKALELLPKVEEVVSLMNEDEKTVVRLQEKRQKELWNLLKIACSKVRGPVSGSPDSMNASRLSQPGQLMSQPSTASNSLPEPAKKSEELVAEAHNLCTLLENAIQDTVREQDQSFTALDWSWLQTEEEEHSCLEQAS
Outline: as §1

[3] = molecular target: T3, 384 kinases from the human genome (Homo sapiens, UniProt Q9HC98); settings: kinase NEK6 (Entrez NEK6)
T3 construct: purchased Eurofin/DiscoverX
Outline: as §1

[4] = molecular target: T4, 384 kinases from the human genome (Homo sapiens, UniProt Q14289); settings: kinase PYK2 (Entrez PTK2B)
T4 construct: purchased Eurofin/DiscoverX
Outline: as §1

[5] = molecular target: T5, 384 kinases from the human genome (Homo sapiens, UniProt Q7KZI7); settings: kinase MARK2 (Entrez MARK2)
T5 construct: purchased Eurofin/DiscoverX
Outline: as §1

[6] = molecular target: T6, 384 kinases from the human genome (Homo sapiens, UniProt Q9BWU1); settings: kinase CDK11 (Entrez CDK19)
T6 construct: purchased Eurofin/DiscoverX
T6 sequence (Q9BWU1 whole entry): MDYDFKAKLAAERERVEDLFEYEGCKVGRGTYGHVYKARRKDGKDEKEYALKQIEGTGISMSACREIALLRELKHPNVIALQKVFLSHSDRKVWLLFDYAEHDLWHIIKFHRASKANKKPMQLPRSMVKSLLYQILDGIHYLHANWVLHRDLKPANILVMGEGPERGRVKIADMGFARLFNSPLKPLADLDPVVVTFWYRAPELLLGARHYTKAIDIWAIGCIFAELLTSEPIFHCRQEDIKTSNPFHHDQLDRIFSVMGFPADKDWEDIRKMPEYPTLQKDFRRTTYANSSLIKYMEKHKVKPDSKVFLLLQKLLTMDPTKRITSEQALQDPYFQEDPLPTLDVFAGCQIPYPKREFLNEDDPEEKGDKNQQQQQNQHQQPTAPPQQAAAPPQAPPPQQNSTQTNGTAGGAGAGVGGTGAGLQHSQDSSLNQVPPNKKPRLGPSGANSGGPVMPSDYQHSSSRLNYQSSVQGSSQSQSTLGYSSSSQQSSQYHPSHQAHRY
Outline: as §1

[7] = molecular target: T7, 384 kinases from the human genome (Homo sapiens, UniProt Q9NYY3); settings: kinase PLK2 (Entrez PLK2)
T7 construct: purchased Eurofin/DiscoverX
Outline: as §1

[8] = molecular target: T8, 384 kinases from the human genome (Homo sapiens, UniProt P11362); settings: kinase FGFR1 (Entrez FGFR1)
T8 construct: purchased Eurofin/DiscoverX
Outline: as §1

[9] = molecular target: T9, 384 kinases from the human genome (Homo sapiens, UniProt Q9Y3S1); settings: kinase WNK2 (Entrez WNK2)
T9 construct: purchased Eurofin/DiscoverX
Outline: as §1

[10] = molecular target: T10, 384 kinases from the human genome (Homo sapiens, UniProt Q9Y243); settings: kinase AKT3 (Entrez AKT3)
T10 construct: purchased Eurofin/DiscoverX
Outline: as §1

[11] = molecular target: T11, 384 kinases from the human genome (Homo sapiens, UniProt Q9UEW8); settings: kinase STK39 (Entrez STK39)
T11 construct: purchased Eurofin/DiscoverX
Outline: as §1

[12] = molecular target: T12, 384 kinases from the human genome (Homo sapiens, UniProt Q13627); settings: kinase DYRK1A (Entrez DYRK1A)
T12 construct: purchased Eurofin/DiscoverX
Outline: as §1

[13] = molecular target: T13, 384 kinases from the human genome (Homo sapiens, UniProt Q96RR4); settings: kinase CAMKK2 (Entrez CAMKK2)
T13 construct: purchased Eurofin/DiscoverX
T13 sequence (Q96RR4 whole entry): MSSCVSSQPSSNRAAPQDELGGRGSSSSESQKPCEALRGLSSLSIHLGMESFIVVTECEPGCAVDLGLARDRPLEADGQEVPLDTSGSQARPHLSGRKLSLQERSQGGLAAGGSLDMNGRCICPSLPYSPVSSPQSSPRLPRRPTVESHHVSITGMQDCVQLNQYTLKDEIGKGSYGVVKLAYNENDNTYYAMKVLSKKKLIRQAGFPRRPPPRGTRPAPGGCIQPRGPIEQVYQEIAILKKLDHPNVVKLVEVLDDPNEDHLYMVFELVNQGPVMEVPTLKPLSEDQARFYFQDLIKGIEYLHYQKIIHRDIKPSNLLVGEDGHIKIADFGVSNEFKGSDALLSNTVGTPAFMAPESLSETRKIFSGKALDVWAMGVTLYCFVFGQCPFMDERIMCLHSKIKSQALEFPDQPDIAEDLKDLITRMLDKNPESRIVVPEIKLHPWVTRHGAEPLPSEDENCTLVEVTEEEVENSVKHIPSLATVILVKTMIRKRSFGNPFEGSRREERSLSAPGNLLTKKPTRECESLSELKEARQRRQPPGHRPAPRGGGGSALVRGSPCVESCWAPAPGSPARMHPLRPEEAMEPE
Outline: as §1

[14] = molecular target: T14, 384 kinases from the human genome (Homo sapiens, UniProt Q99558); settings: kinase NIK (Entrez MAP3K14)
T14 construct: purchased Eurofin/DiscoverX
Outline: as §1

[15] = molecular target: T15, 384 kinases from the human genome (Homo sapiens, UniProt P42345); settings: kinase MTOR (Entrez MTOR)
T15 construct: purchased Eurofin/DiscoverX
Outline: as §1

[16] = molecular target: T16, 384 kinases from the human genome (Homo sapiens, UniProt O14976); settings: kinase GAK (Entrez GAK)
T16 construct: purchased Eurofin/DiscoverX
T16 sequence (O14976 whole entry): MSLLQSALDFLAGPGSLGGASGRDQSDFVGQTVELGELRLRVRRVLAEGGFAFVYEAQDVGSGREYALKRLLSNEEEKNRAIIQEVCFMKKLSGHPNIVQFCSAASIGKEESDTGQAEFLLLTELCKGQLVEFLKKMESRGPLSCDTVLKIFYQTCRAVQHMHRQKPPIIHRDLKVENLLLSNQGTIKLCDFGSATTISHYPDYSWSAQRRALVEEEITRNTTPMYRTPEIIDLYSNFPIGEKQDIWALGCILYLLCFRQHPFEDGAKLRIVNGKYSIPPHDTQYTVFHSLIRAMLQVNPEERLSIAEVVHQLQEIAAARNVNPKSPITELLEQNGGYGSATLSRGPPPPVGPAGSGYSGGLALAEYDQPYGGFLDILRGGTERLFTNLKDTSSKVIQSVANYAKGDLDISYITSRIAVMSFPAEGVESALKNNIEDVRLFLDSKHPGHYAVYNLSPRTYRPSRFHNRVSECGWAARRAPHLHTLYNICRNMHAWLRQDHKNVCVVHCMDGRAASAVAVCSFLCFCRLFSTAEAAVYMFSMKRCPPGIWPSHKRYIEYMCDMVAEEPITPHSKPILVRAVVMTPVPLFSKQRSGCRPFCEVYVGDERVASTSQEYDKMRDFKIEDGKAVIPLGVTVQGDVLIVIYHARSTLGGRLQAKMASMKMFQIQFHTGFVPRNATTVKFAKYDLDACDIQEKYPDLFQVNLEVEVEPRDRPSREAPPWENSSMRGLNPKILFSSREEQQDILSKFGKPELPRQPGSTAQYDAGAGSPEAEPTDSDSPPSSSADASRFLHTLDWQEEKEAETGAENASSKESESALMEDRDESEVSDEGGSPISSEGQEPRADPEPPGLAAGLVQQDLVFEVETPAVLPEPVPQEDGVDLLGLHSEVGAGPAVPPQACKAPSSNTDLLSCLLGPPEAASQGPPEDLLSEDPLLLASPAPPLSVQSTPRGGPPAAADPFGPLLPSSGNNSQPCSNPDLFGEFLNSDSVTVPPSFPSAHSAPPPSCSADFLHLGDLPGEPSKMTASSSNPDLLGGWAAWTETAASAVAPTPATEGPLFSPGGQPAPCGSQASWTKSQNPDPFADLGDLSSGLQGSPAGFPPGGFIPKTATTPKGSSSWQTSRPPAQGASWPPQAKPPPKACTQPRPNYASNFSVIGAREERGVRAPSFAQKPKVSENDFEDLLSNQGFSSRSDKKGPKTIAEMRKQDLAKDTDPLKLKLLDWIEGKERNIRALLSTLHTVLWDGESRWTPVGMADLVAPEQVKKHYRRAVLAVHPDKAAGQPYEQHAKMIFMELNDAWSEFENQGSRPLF
Outline: as §1

[17] = molecular target: T17, 384 kinases from the human genome (Homo sapiens, UniProt Q13470); settings: kinase TNK1 (Entrez TNK1)
T17 construct: purchased Eurofin/DiscoverX
Outline: as §1

[18] = molecular target: T18, 384 kinases from the human genome (Homo sapiens, UniProt O14730); settings: kinase RIOK3 (Entrez RIOK3)
T18 construct: purchased Eurofin/DiscoverX
T18 sequence (O14730 whole entry): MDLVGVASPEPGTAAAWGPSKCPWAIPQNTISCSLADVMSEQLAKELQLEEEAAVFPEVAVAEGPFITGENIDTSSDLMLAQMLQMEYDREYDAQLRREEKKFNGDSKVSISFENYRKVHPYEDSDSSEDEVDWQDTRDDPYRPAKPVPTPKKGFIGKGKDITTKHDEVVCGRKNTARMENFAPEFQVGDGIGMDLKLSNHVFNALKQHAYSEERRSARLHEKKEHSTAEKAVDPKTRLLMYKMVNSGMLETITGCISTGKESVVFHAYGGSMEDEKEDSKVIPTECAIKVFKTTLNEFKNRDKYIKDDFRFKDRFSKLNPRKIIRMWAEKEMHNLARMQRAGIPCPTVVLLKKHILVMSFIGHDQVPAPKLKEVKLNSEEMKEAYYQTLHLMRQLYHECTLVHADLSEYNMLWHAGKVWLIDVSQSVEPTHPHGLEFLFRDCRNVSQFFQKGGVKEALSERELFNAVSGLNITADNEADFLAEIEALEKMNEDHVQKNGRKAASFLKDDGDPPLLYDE
Outline: as §1

[19] = molecular target: T19, 384 kinases from the human genome (Homo sapiens, UniProt Q8TD19); settings: kinase NEK9 (Entrez NEK9)
T19 construct: purchased Eurofin/DiscoverX
Outline: as §1

[20] = molecular target: T20, 384 kinases from the human genome (Homo sapiens, UniProt P07332); settings: kinase FES (Entrez FES)
T20 construct: purchased Eurofin/DiscoverX
T20 sequence (P07332 whole entry): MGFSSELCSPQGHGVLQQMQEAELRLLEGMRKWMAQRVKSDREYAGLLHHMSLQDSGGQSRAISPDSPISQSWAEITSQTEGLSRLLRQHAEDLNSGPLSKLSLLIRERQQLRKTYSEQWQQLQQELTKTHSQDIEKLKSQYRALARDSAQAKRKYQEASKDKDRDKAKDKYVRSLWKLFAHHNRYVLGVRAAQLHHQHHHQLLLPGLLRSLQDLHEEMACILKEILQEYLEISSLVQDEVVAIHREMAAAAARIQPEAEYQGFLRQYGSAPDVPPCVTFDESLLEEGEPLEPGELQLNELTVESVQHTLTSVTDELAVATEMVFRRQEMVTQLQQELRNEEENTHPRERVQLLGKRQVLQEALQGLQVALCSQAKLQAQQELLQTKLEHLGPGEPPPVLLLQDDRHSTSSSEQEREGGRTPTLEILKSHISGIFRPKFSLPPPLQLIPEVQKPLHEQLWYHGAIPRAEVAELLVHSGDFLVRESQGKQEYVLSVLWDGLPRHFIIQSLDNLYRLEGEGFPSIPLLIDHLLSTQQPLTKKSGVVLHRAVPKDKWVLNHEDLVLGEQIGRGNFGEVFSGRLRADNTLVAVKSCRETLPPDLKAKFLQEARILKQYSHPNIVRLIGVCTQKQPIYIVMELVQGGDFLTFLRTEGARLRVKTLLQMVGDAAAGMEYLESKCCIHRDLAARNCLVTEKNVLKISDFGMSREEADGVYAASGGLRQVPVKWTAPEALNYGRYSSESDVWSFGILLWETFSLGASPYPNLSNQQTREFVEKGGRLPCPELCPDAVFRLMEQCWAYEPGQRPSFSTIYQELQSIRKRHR
Outline: as §1

[21] = molecular target: T21, 384 kinases from the human genome (Homo sapiens, UniProt P12931)
T21 construct: purchased Eurofin/DiscoverX
T21 sequence (P12931 whole entry): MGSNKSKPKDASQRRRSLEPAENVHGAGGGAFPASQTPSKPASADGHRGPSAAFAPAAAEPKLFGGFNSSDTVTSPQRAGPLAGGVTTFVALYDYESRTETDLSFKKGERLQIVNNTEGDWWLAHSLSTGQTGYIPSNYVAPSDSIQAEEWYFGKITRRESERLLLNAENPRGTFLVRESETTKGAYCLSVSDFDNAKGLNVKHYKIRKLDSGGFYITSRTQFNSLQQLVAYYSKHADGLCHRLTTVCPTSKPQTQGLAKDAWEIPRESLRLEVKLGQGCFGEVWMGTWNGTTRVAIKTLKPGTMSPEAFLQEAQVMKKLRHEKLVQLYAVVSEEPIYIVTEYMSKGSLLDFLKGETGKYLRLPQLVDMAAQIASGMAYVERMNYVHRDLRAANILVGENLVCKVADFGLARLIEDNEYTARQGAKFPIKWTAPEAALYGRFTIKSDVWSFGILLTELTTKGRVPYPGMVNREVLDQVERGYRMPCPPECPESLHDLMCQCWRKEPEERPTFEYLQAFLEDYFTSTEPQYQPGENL
Outline: as §1

[22] = molecular target: T22, 384 kinases from the human genome (Homo sapiens, UniProt Q9Y6R4); settings: kinase MAP3K4 (Entrez MAP3K4)
T22 construct: purchased Eurofin/DiscoverX
Outline: as §1

Compound: CC(C)C(=O)N1CCN(c2ccc(NC(=O)c3cc4ccccc4o3)cc2Cl)CC1 [Compound 21]
- Percent Control [1]: 24%
- Percent Control [2]: 98%
- Percent Control [3]: 94%
- Percent Control [4]: 96%
- Percent Control [5]: 80%
- Percent Control [6]: 100%
- Percent Control [7]: 90%
- Percent Control [8]: 99%
- Percent Control [9]: 100%
- Percent Control [10]: 100%
- Percent Control [11]: 100%
- Percent Control [12]: 98%
- Percent Control [13]: 100%
- Percent Control [14]: 66%
- Percent Control [15]: 65%
- Percent Control [16]: 96%
- Percent Control [17]: 75%
- Percent Control [18]: 100%
- Percent Control [19]: 100%
- Percent Control [20]: 73%
- binding to Src ([21]; 10 µM of 21): failed to bind
- Percent Control ([21]; kinase SRC (Entrez SRC)): 100%
- Percent Control [22]: 73%
